According to ChEMBL document CHEMBL1128795, “N-(Quinuclidin-3-yl)-2-(1-methyl-1H-indol-3-yl)-2-oxo-acetamide: a high affinity 5-HT3 receptor partial agonist” (Bioorg Med Chem Lett, 1995):
pKi: −log10 of the molar value.

What was measured:
[1] = organism: Rattus norvegicus; assay: Tested for maximum response in depolarization of isolated rat vagus nerve measured at dose 10 uM; assay type: functional
[2] = target: 5-hydroxytryptamine receptor 4 (Homo sapiens, UniProt Q13639); assay: Binding affinity against 5-hydroxytryptamine 4 receptor
5-hydroxytryptamine receptor 4, sequence (Q13639 whole entry): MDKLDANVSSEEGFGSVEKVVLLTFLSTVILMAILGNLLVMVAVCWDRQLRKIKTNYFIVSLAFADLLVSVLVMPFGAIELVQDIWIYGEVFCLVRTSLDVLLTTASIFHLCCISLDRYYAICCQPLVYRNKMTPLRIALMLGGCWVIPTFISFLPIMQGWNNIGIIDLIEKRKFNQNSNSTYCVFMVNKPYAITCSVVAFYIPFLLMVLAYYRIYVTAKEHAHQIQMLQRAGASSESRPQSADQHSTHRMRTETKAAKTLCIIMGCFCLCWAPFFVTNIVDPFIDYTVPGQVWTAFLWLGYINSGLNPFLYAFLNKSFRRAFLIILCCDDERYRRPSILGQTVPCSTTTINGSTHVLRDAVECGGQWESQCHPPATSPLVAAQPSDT

Row | SMILES | Max response [1] [uV] | pKi [2]
1 | Cn1cc(C(=O)C(=O)N[C@@H]2CN3CCC2CC3)c2ccccc21 | 167 | 
2 | Cn1cc(C(=O)C(=O)N[C@H]2CN3CCC2CC3)c2ccccc21 |  | 6.60
